ChEMBL document CHEMBL4825668, “Discovery of Novel Pyrimidine-Based Capsid Assembly Modulators as Potent Anti-HBV Agents” (J Med Chem, 2021)
Activity calls are given as the source filed them. The rule behind the calls is not given here.

Legend:
[1] = test system: Hepatitis B virus; assay: Antiviral activity against Human hepatitis B virus in Huh-7 cells assessed as reduction in intracellular viral DNA level incubated for 36 hrs by qPCR analysis; format: functional, organism-based; conditions: Huh-7, 36 h
[2] = Metabolic stability in mouse liver microsomes assessed as compound remaining at […] incubated for 30 mins by LC/MS/MS analysis; format: ADME, Microsome; conditions: read-out: Stabilty
[3] = Metabolic stability in rat liver microsomes assessed as compound remaining at […] incubated for 30 mins by LC/MS/MS analysis; format: ADME, Microsome; conditions: read-out: Stabilty
[4] = Metabolic stability in human liver microsomes assessed as compound remaining at […] incubated for 30 mins by LC/MS/MS analysis; format: ADME, Microsome; conditions: read-out: Stabilty
[5] = Permeability of the compound at pH 7.4 by PAMPA; format: ADME
[6] = biological target: T1, CYP1A2 (Homo sapiens, UniProt P05177); assay: Inhibition of human recombinant CYP1A2 using alpha-naphthoflavone […] at 10 uM by fluorometric assay; format: ADME
T1 sequence (P05177 whole entry): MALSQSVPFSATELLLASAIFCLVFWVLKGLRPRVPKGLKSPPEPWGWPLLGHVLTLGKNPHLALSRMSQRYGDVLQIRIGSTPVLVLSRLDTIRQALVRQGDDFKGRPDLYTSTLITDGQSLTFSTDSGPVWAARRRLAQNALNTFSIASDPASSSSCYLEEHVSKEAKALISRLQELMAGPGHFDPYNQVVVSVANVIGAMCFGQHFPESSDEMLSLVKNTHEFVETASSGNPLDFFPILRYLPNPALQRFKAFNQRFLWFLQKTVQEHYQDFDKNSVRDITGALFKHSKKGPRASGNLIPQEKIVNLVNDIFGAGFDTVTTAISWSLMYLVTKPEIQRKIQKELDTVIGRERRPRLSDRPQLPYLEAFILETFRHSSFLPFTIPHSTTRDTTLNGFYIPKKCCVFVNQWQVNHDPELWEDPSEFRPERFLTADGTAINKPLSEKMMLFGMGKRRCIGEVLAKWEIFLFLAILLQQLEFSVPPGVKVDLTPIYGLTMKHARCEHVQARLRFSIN

[7] = biological target: CYP2C9 (Homo sapiens, UniProt P11712); assay: Inhibition of human recombinant CYP2C9 using sulfaphenazole […] at 10 uM by fluorometric assay; format: ADME
Sequence of CYP2C9 (P11712 whole entry): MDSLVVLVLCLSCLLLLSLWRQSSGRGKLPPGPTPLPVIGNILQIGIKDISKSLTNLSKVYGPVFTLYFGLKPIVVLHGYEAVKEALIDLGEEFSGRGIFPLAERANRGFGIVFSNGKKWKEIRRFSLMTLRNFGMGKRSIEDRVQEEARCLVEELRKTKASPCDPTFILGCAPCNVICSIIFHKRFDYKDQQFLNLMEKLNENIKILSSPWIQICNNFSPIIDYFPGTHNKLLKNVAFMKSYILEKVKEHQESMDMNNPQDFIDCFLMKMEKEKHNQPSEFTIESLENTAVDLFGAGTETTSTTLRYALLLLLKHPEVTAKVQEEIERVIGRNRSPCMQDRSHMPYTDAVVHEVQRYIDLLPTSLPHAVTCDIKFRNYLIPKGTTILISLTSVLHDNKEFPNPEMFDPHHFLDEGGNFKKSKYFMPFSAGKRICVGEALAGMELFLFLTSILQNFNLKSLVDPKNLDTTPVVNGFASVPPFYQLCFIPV

[8] = biological target: CYP2C19 (Homo sapiens, UniProt P33261); assay: Inhibition of human recombinant CYP2C19 using amitriptyline […] at 10 uM by fluorometric assay; format: ADME
Sequence of CYP2C19 (P33261 whole entry): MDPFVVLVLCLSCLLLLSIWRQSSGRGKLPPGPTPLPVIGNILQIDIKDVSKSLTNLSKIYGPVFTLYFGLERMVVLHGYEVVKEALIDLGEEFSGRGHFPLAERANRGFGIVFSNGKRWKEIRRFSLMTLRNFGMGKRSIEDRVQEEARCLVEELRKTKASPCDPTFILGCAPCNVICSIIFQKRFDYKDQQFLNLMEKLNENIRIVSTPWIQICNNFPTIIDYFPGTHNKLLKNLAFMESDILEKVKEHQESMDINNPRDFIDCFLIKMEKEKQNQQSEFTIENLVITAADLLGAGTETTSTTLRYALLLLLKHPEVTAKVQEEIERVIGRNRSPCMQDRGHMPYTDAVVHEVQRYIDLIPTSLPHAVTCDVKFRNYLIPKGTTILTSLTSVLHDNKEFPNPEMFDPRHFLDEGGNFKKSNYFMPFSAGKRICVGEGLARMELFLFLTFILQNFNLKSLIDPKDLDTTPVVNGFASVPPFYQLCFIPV

[9] = biological target: CYP2D6 (Homo sapiens, UniProt P10635); assay: Inhibition of human recombinant CYP2D6 using quinidine […] at 10 uM by fluorometric assay; format: ADME
Sequence of CYP2D6 (P10635 whole entry): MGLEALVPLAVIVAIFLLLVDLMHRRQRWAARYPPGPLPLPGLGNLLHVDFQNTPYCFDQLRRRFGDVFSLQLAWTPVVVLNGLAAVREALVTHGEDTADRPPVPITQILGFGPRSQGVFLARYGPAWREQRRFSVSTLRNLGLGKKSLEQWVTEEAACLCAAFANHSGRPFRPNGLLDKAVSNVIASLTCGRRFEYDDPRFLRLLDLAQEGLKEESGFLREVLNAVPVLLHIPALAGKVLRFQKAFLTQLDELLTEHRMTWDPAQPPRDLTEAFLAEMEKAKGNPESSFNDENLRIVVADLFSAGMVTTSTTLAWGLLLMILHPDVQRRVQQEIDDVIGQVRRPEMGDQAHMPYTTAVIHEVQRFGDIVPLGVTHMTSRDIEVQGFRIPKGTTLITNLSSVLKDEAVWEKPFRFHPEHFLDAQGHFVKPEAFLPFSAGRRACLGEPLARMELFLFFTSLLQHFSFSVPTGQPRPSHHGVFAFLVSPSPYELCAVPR

[10] = biological target: CYP3A4 (Homo sapiens, UniProt P08684); assay: Inhibition of human recombinant CYP3A4 using ketoconazole […] at 10 uM by fluorometric assay; format: ADME
Sequence of CYP3A4 (P08684 whole entry): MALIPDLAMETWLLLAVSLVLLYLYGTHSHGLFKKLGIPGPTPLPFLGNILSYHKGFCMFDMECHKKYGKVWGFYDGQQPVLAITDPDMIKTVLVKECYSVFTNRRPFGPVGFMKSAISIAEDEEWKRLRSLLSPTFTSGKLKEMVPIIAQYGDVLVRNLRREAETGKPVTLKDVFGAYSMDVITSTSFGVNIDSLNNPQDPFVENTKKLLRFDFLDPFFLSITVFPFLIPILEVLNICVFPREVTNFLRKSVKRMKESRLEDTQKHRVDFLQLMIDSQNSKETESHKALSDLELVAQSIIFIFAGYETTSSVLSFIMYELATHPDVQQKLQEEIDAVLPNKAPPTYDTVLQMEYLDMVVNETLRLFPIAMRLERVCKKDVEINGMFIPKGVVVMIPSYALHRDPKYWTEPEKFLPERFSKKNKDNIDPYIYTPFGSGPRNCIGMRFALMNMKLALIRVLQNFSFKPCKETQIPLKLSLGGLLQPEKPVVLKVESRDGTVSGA

[11] = biological target: hERG (KCNH2) (Homo sapiens, UniProt Q12809); assay: Inhibition of human ERG at 40 uM incubated for 2 to 3 hrs by ligand binding assay
Sequence of hERG (KCNH2) (Q12809 whole entry): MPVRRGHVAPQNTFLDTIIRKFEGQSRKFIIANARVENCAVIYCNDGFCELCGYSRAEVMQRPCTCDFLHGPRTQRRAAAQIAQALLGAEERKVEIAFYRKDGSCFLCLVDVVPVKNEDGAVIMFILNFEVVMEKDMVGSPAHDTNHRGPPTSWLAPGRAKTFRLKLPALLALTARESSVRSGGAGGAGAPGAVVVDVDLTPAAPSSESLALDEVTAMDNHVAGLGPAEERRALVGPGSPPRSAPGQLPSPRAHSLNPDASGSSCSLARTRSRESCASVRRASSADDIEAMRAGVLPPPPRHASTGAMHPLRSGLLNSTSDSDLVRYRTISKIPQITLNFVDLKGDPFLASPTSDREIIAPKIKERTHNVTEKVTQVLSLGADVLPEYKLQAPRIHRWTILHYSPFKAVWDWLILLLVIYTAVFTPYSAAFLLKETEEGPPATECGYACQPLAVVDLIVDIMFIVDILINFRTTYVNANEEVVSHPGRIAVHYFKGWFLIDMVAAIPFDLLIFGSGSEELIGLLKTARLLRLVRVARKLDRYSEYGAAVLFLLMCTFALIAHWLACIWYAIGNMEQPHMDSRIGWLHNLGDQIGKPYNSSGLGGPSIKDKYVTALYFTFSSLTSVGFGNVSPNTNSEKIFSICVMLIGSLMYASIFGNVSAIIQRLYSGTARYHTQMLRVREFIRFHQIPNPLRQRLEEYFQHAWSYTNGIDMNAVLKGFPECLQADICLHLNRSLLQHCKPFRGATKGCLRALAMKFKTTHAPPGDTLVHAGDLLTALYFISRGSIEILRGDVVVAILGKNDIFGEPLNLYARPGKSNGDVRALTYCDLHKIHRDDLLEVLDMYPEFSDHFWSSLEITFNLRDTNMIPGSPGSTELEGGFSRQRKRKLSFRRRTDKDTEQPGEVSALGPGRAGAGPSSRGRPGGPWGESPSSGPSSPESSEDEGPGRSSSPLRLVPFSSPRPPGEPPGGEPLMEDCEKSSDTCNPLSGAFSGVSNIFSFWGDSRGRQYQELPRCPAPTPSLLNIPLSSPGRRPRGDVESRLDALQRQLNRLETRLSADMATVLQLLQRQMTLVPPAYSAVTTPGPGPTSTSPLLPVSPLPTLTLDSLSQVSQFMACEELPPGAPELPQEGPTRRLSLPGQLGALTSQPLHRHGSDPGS

[12] = biological target: Voltage-gated inwardly rectifying potassium channel KCNH2 (Homo sapiens, UniProt Q12809); assay: Inhibition of human ERG expressed in HEK cells at -80 mV holding potential by patch clamp assay relative to control; format: cell-based
Sequence of Voltage-gated inwardly rectifying potassium channel KCNH2 (Q12809 whole entry): as above

[13] = Mutagenicity in Salmonella typhimurium in presence of S9 fraction by Ames test; format: toxicity, subcellular; conditions: salmonella enterica subsp. enterica serovar typhimurium
[14] = Toxicity in BALB/c mouse assessed as changes in blood up to 400 mg/kg, po for 2 weeks; format: organism-based; conditions: in vivo, 336 h
[15] = Toxicity in BALB/c mouse assessed as changes in urine up to 400 mg/kg, po for 2 weeks; format: organism-based; conditions: in vivo, 336 h
[16] = AUC(infinity) in ICR mouse at 10 mg/kg, po measured after 1440 mins by HPLC analysis; format: ADME, organism-based; parameters: route oral, dose 10 mg/kg, time 1440 min; conditions: in vivo
[17] = AUClast in ICR mouse at 10 mg/kg, po measured after 1440 mins by HPLC analysis; format: ADME, organism-based; parameters: route oral, time 1440 min, dose 10 mg/kg; conditions: in vivo
[18] = Cmax in ICR mouse at 10 mg/kg, po measured after 1440 mins by HPLC analysis; format: ADME, organism-based; parameters: route oral, dose 10 mg/kg, time 1440 min; conditions: in vivo
[19] = Half life in ICR mouse at 10 mg/kg, po measured after 1440 mins by HPLC analysis; format: ADME, organism-based; conditions: in vivo
[20] = Tmax in ICR mouse at 10 mg/kg, po measured after 1440 mins by HPLC analysis; format: ADME, organism-based; conditions: in vivo
[21] = Oral bioavailability in ICR mouse at 10 mg/kg measured after 1440 mins by HPLC analysis; format: ADME, organism-based; conditions: in vivo
[22] = AUC(infinity) in ICR mouse at 5 mg/kg, iv measured after 1440 mins by HPLC analysis; format: ADME, organism-based; parameters: route intravenous, time 1440 min, dose 5 mg/kg; conditions: in vivo
[23] = AUClast in ICR mouse at 5 mg/kg, iv measured after 1440 mins by HPLC analysis; format: ADME, organism-based; parameters: route intravenous, dose 5 mg/kg, time 1440 min; conditions: in vivo
[24] = Clearance in ICR mouse at 5 mg/kg, iv measured after 1440 mins by HPLC analysis; format: ADME, organism-based; conditions: in vivo
[25] = Cmax in ICR mouse at 5 mg/kg, iv measured after 1440 mins by HPLC analysis; format: ADME, organism-based; parameters: route intravenous, dose 5 mg/kg, time 1440 min; conditions: in vivo
[26] = Half life in ICR mouse at 5 mg/kg, iv measured after 1440 mins by HPLC analysis; format: ADME, organism-based; conditions: in vivo
[27] = Volume of distribution at steady state in ICR mouse at 5 mg/kg, iv measured after 1440 mins by HPLC analysis; format: ADME, organism-based; conditions: in vivo, read-out: Vdss
[28] = test system: Hepatitis B virus; assay: Inhibition of HBV recombinant Cp149 expressed in Escherichia coli BL21 (DE3) assessed as inhibition of capsid assembly at 1 uM incubated for 1 hr by immune blotting analysis relative to control
[29] = test system: Hepatitis B virus; assay: Inhibition of HBV recombinant Cp149 expressed in Escherichia coli BL21 (DE3) assessed as inhibition of capsid assembly at 0.1 uM incubated for 1 hr by immune blotting analysis relative to control
[30] = test system: Hepatitis B virus; assay: Antiviral activity against Human hepatitis B virus in Huh-7 cells assessed as decrease in viral DNA level incubated for 36 hrs by qPCR analysis; format: functional, organism-based
[31] = test system: Hepatitis B virus; assay: Antiviral activity against Human hepatitis B virus in Huh-7 cells assessed as decrease in intracellular viral DNA accumulation incubated for 36 hrs by qPCR analysis; format: functional, organism-based
[32] = test system: Hepatitis B virus; assay: Antiviral activity against Human hepatitis B virus in Huh-7 cells assessed as reduction in HBsAg level by ELISA; format: functional, organism-based
[33] = test system: Huh-7; assay: Inhibition of HBV recombinant Cp149 expressed in Huh-7 cells assessed as assembled HBV core protein fraction at 1 uM incubated for 1 hr by sucrose gradient analysis; format: cell-based; conditions: Hepatitis B virus
[34] = test system: Huh-7; assay: Inhibition of HBV recombinant Cp149 expressed in Huh-7 cells assessed as inhibition of secretion of particles containing viral DNA at 1 uM incubated for 1 hr by immunoblot analysis; format: cell-based; conditions: Hepatitis B virus
[35] = test system: Hepatitis B virus; assay: Antiviral activity against Human hepatitis B virus infected in humanized liver uPA SCID mouse model assessed as decrease in serum viral DNA at 40 mg/kg, po daily measured every week by qPCR analysis; format: functional, organism-based
[36] = test system: Hepatitis B virus; assay: Antiviral activity against Human hepatitis B virus infected in humanized liver uPA SCID mouse model assessed as change in serum HBsAg at 40 mg/kg, po daily measured every week by ELISA; format: functional, organism-based
[37] = test system: Hepatitis B virus; assay: Antiviral activity against Human hepatitis B virus infected in humanized liver uPA SCID mouse model assessed as change in serum HBeAg at 40 mg/kg, po daily measured every week by ELISA; format: functional, organism-based
[38] = test system: Hepatitis B virus; assay: Antiviral activity against Human hepatitis B virus infected in humanized liver uPA SCID mouse model assessed as reduction in HBV core protein at 40 mg/kg, po daily measured after 35 days by immunohistochemical analysis; format: functional, organism-based; conditions: time 35.0 day
[39] = test system: Hepatitis B virus; assay: Antiviral activity against Human hepatitis B virus infected in hydrodynamic injection C57BL/6 mouse model assessed as reduction in viral DNA in serum up to 120 mg/kg, po daily measured after 5 days by qPCR analysis; format: functional, organism-based; conditions: dose mg/kg <=120, time 5.0 day
[40] = test system: Hepatitis B virus; assay: Antiviral activity against Human hepatitis B virus infected in hydrodynamic injection C57BL/6 mouse model assessed as reduction in serum HBsAg up to 120 mg/kg, po daily by ELISA; format: functional, organism-based; conditions: dose mg/kg <=120
[41] = AUC(infinity) in ICR mouse at 10 mg/kg, iv measured after 1440 mins by HPLC analysis; format: ADME, organism-based; parameters: route intravenous, time 1440 min, dose 10 mg/kg; conditions: in vivo
[42] = AUClast in ICR mouse at 10 mg/kg, iv measured after 1440 mins by HPLC analysis; format: ADME, organism-based; parameters: route intravenous, dose 10 mg/kg, time 1440 min; conditions: in vivo
[43] = Clearance in ICR mouse at 10 mg/kg, iv measured after 1440 mins by HPLC analysis; format: ADME, organism-based; conditions: in vivo
[44] = Half life in ICR mouse at 10 mg/kg, iv measured after 1440 mins by HPLC analysis; format: ADME, organism-based; conditions: in vivo
[45] = Volume of distribution at steady state in ICR mouse at 10 mg/kg, iv measured after 1440 mins by HPLC analysis; format: ADME, organism-based; conditions: in vivo, read-out: Vdss

SMILES: CS(=O)(=O)c1nc(Nc2ccc(F)c(Cl)c2)cc(NC2CCC(N)CC2)n1 (stereo unspecified) [listing 1 of 2 here]
- IC50 [1]: 0.181 µM
- remaining at 0.5 h [2]: 79.6%
- remaining at 0.5 h [3]: 82%
- remaining at 0.5 h [4]: 81.7%
- log(permeability) [5]: -5.15
- inhibition at 10 µM [6]: 37.2%
- inhibition at 10 µM [7]: 51.8%
- inhibition at 10 µM [8]: 71.4%
- inhibition at 10 µM [9]: 21.7%
- inhibition at 10 µM [10]: 44%
- inhibition at 40 µM [11]: 76.6%
- IC50 [12]: 19.8 µM
- Activity [13]: Non-Toxic
- Activity [14]: Non-Toxic
- Activity [15]: Non-Toxic

SMILES: CS(=O)(=O)c1nc(Nc2ccc(F)c(Cl)c2)cc(NC2CCC(N)CC2)n1.Cl (stereo unspecified)
- AUC(0-inf) [16]: 0.27 µg·h/mL
- AUC(0-t) at 24 h [17]: 0.203 µg·h/mL
- Cmax [18]: 0.0283 µg/mL
- half-life [19]: 6.3 h
- Tmax [20]: 1.8 h
- bioavailability [21]: 4.8%
- AUC(0-inf) [22]: 2.41 µg·h/mL
- AUC(0-t) at 24 h [23]: 2.11 µg·h/mL
- clearance [24]: 2.2 L/h/kg
- Cmax [25]: 9.79 µg/mL
- half-life [26]: 4.8 h
- Vd [27]: 5.4 L/kg

SMILES: CS(=O)(=O)c1nc(Nc2ccc(F)c(Cl)c2)cc(NC2CCC(N)CC2)n1 (stereo unspecified) [listing 2 of 2 here]
- inhibition [28]: 99%
- inhibition [29]: 52%
- Activity [30]: Active
- Activity [31]: Active
- Activity [32]: inactive
- inhibition [33]: Active
- inhibition [34]: Active
- Activity [35]: Active
- Activity [36]: Active
- Activity [37]: Active
- Activity [38]: Active
- Activity [39]: Dose-Dependent Effect
- Activity [40]: Active

SMILES: CS(=O)(=O)c1nc(Nc2ccc(F)c(Cl)c2)cc(N2CCNCC2)n1.Cl
- AUC(0-inf) [41]: 2.33 µg·h/mL
- AUC(0-t) at 24 h [42]: 2.37 µg·h/mL
- clearance [43]: 4.25 L/h/kg
- half-life [44]: 3.3 h
- Vd [45]: 10.9 L/kg
- AUC(0-inf) [16]: 0.107 µg·h/mL
- AUC(0-t) at 24 h [17]: 0.131 µg·h/mL
- Cmax [18]: 0.025 µg/mL
- half-life [19]: 7.8 h
- Tmax [20]: 0.5 h
- bioavailability [21]: 4.6%
